Measurements taken from US20040002465A1, “Polyene macrolide derivatives, use for vectoring molecules” (UNIVERSITE PIERRE ET MARIE CURIE, priority 1998, published 2004).
Values after ≈ are worked out from the molar mass of the structure shown.

What was measured:
[1] = system: 27-mer oligonucleotide (ODN) in 10% (v/v) foetal calf serum; assay: Seric degradation of delivered oligonucleotide, gel autoradiography; details: +/− charge ratio 10, 10% (v/v) foetal calf serum, 37° C., up to 16 hours; versus non delivered ODN
Protocol: A 27-mer oligonucleotide (ODN) was rendered radioactive by labelling at the 5′ end with ^32P using a standard procedure (Pharmacia) using T4 polynucleotide kinase and ^32(γ)ATP. A small quantity of this ^32P labelled ODN was mixed with cold ODN. AmA was added in a concentration such that the +/− charge ratio was 10 and the complex was allowed to form at ambient temperature for 30 minutes. A sample containing no AmA constituted the control (non delivered ODN). ODN degradation was triggered at time 0 at 37° C. by adding 10% (v/v) foetal calf serum in which the enzymatic activity was essentially 3′-exonucleasic (Sirotkin, Cooley et al., 1978). At intervals, samples were removed for which the action of the enzymes was stopped by adding formamide and placing the tube in ice. The reaction wsa stopped after 4, 6, 8 and 16 hours of incubation with the serum. The samples were then migrated on a denaturing (7 M urea) 20% polyacrylamide gel.

[2] = system: P-gp in NIH-MDR G185 cells (3T3 R); type: cell-based, human
Chain of P-gp in NIH-MDR G185 cells (3T3 R) (P08183 whole entry): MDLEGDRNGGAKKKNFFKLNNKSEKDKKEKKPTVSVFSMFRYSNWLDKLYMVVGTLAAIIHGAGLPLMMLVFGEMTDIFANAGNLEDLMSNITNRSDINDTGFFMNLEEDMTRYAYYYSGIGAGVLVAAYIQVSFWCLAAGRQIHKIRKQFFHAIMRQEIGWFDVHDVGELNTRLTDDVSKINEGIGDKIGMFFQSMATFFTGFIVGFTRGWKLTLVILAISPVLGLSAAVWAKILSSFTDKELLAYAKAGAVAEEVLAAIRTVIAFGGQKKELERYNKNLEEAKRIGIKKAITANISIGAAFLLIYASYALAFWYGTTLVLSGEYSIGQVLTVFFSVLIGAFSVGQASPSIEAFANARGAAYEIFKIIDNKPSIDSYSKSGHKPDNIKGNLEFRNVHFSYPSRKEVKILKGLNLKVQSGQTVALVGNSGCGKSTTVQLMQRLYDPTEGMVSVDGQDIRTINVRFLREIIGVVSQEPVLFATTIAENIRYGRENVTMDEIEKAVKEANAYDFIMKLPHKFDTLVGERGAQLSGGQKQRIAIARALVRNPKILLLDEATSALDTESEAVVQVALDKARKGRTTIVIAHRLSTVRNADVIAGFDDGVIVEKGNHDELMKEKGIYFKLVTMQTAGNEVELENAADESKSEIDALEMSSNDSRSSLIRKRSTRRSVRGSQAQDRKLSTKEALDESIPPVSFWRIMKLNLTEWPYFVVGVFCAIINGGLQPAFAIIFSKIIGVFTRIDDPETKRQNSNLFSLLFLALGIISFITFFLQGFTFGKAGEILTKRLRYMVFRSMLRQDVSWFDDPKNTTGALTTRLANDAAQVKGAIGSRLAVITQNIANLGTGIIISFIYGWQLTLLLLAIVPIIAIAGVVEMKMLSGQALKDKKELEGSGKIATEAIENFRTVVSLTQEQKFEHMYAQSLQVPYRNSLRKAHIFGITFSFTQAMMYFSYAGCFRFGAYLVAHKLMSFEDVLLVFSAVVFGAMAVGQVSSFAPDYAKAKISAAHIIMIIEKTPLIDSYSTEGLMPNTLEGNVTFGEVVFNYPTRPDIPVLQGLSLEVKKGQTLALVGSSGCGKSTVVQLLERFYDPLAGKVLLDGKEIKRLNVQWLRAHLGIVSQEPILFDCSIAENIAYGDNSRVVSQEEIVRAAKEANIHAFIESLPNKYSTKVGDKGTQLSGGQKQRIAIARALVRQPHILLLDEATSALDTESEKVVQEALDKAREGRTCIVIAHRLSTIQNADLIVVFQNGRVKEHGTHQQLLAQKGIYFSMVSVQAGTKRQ

3T3 cells [3] = assay: Internalisation of FITC-labelled antisense oligonucleotide, confocal microspectrofluorimetry; type: cell-based; details: 4 hours
MCF 7 cells = assay: Internalisation of FITC-labelled anti-gene oligonucleotide; type: cell-based, human; details: charge ratio 5, compared with AmE, Lipofectine or free oligonucleotides
3T3 cells [4] = assay: Toxicity of AmA with or without antisense oligonucleotide, MTT cellular viability; details: 4 hours at 37° C.
[5] = system: ATCC 10261 Candida albicans; assay: Antifungal activity, growth inhibition of Candida albicans culture; type: cell-based; details: concentration inducing 50% inhibition of strain growth; liquid Sabouraud medium, 24 hours at 30° C., spectrophotometry at 660 nm
Protocol: More particularly, each compound was incubated at different concentrations with a culture of ATCC 10261 Candida albicans (inoculum, […]) in liquid Sabouraud medium for 24 hours at 30° C. Cell growth was then measured by spectrophotometry at a wavelength of 660 nm.

Compound | IC50 [5] [µg/mL] | also measured
Amphotericin B dimethylaminopropylamide [AMA] |  | seric degradation of the delivered oligonucleotide [1]: slowed that degradation; synthesis of P-gp, possible vector effect [2]: did not itself inhibit synthesis of P-gp; intracellular distribution of fluorescence (3T3 cells [3]; nucleus versus cytoplasm): distributed homogeneously inside the cells; internalisation of fluorescent oligonucleotide (fluorescence intensity of cells) (3T3 cells [3]; AmA 1×10^−5 M and 2×10^−5 M, compared with AmE, Lipofectine (20 μg/ml) or the oligonucleotides alone): much greater internalisation; internalisation of fluorescent oligonucleotide (fluorescence intensity of cells) (MCF 7 cells): much greater internalisation; concentration below which cell growth appears to have been stimulated (3T3 cells [4]; MTT): below 10^−5 M; concentration below which no toxicity was observed (cellular viability, MTT) (3T3 cells [4]; serum-free DMEM, AmA in the presence or absence of oligonucleotide): below 2×10^−5 M
N-(Nα, Nα, Nα,Nε, Nε, Nε,-hexamethyl) AME [MLAME] | 0.15 | 
2-dimethylaminoethyl ester of amphotericin B [AMEE] | 0.08 | 
N-(4-methyl-1-piperazinepropionyl) AMPA [PAMPA] | 0.17 | 
N-(4-methyl-1-piperazinepropionyl)AME [PNAME] | 0.16 | 
Amphotericin B N1-sperminylamide [AMSA] | 0.10 | 
CC1C=CC=CC=CC=CC=CC=CC=CC(OC2OC(C)C(O)C(N)C2O)CC2OC(O)(CC(O)CC(O)C(O)CCC(O)CC(O)CC(=O)OC(C)C(C)C1O)CC(O)C2C(=O)NCCc1ccccn1 (stereo not drawn) [AMPEA, Amphotericin B 2-(2-pyridyl)ethylamide] | 0.015 (≈ 0.0146 µM) | 
N-(1-piperdinepropionyl) AME [PAME] | 0.15 | 
Amphotericin B 3-dimethylaminopropyl ester [AMPE] | 0.10 | 
N-(N′-3-dimethylaminopropyl-succinimido) amphotericin B methyl ester [SAME] | 0.125 | 
L-aspartate salt of OAMA [OAMA L-aspartate] | 0.17 | 
Amphotericin B (N^2-lysyllysine methylester) amide [AMDLA] | 0.12 | 
N-ornithyl-AMA [OAMA] | 0.15 | 
Amphotericin B-2-(morpholyl)ethylamide [AMMEA] | 0.013 | 
CC1C=CC=CC=CC=CC=CC=CC=CC(OC2OC(C)C(O)C(N)C2O)CC2OC(O)(CC(O)CC(O)C(O)CCC(O)CC(O)CC(=O)OC(C)C(C)C1O)CC(O)C2C(=O)N1CCN(C)CC1 (stereo not drawn) [AMPA, Amphotericin B B-4-methylpiperizyne amide] | 0.015 (≈ 0.0149 µM) | 
